Reference: patent EP2002836B1, “Cyclocondensed azaindoles active as kinase inhibitors” (Nerviano Medical Sciences S.r.l., priority 2007, dated 2008)

biological target: AKT1 (Homo sapiens, UniProt P31749); assay: Biochemical assay for inhibitors of AKT1 kinase activity (33P trans-phosphorylation, Dowex resin); parameters: made in house; conditions: 5 nM enzyme, 132 microM ATP, 30 microM peptide substrate; read-out: AKT1 IC50 (µM) Biochem assay
Procedure: The N-terminal GST fusion proteins used for the assays were prepared according to the methods described in Kumar, C. C. Biochem. Biophys. ACTA 2001, 1526, 257-268, and in Alessi, D. R.. Biochem. J. 1998 331, 299-308.
The inhibitory activity of putative kinase inhibitors and the potency of selected compounds were determined using a trans-phosphorylation assay.
A specific substrate was incubated with the kinase in appropriate buffer conditions in the presence of ATP traced with ^33P-γ-ATP (gamma phosphate-labeled, Redivue™ Code Number AH9968, 1000-3000Ci/mmole, Amersham Biosciences Piscataway, NJ, USA), optimal cofactors and test compound.
At the end of the phosphorylation reaction, more than 98% cold and radioactive ATP were captured by an excess of Dowex ion exchange resin. The resin was allowed to settle to the bottom of reaction wells by gravity. Supernatant, containing substrate peptide, was subsequently withdrawn and transferred into a counting plate, and radioactivity (corresponding to phosphate incorporated into peptide) was evaluated by β-counting.
Kinase buffer was composed of 50 mM TRIS pH 7.5 containing10 mM MgCl2, 1 mM DTT, 3 microM Na3VO4, and 0.2 mg/mL BSA. 3X KB is buffer of the same composition and pH as KB, but with three times the concentration of each component. iii.Assay conditions (final concentrations) for AKT1.
The kinase assay was run with a final enzyme concentration of 5 nM, in the presence of 132 microM ATP, 0.88 nM ^33P-γ-ATP and 30 microM substrate, a carboxy-terminally biotinylated peptide of the following sequence: ARKRERTYSFGHHA-biotin. The peptide was obtained in batches of >95% peptide purity from PRIMM labs Inc. (Boston MA, USA).
The "test" mixture of 15 microL consisting of: • 1) 5 µl/well of 3x Enzyme mix (done in Kinase Buffer 3X), • 2) 5 µl/well of 3x substrate and ATP mix (done in ddH2O), together with ^33P-γ-ATP, • 3) 5 µl/well of 3x test compounds (diluted into ddH2O - 3% DMSO).
For % inhibition studies, dilution plates at 1 mM, 10 microM and 100 microM were prepared in 100% DMSO, then diluted to 3X final desired concentration (30, 3 and 0.3 microM) in ddH2O, 3% DMSO. A Multimek 96 (Beckman Coulter, Inc. 4300 N. Harbor Boulevard, P.O. Box 3100 Fullerton, CA 92834-3100 USA) was used for compound pipetting into test plates.
For IC50 determination, starting solutions of 30 microM compound in 3% DMSO were derived from 1 mM/100% DMSO stock solutions. These 30 microM starting solutions were used for generation of a further 9 serial 1/3 dilutions in ddH20, 3% DMSO, so as to generate a 10-point dilution curve at 3X the final assay concentration. Serial dilution was conducted in 96-well plates using a Biomek 2000 (Beckman Coulter) system. Dilution curves of 7 compounds/plate were prepared, and each plate also included a 10-point dilution curve of Staurosporine, as well as several negative and positive control wells.
384-well plates, V bottom (test plates) are prepared with 5 µl of the compound dilution (3X) and then placed onto a PlateTrak 12 robotized station (Perkin Elmer; the robot has one 384-tips pipetting head for starting the assay plus one 96-tips head for dispensing the resin) together with one reservoir for the Enzyme mix (3X) and one for the ATP mix (3X).
At the start of the run, the robot aspirates 5 µl of ATP mix, makes an air gap inside the tips (3 µl) and aspirates 5 µl of AKT mix. The following dispensation into the plates allows the kinase reaction to start upon 3 cycles of mixing, done by the robot itself.
The robot incubates the plates for 60 minutes at room temperature, and then stops the reaction by pipetting 70 µl of dowex resin suspension into the reaction mix. Three cycles of mixing are done immediately after the addition of the resin.
Another mixing cycle is performed after all the plates are stopped, this time using normal tips: the plates are then allowed to rest for about one hour in order to maximize ATP capture. […]

Chain of AKT1 (P31749 whole entry, the tested form may be a part): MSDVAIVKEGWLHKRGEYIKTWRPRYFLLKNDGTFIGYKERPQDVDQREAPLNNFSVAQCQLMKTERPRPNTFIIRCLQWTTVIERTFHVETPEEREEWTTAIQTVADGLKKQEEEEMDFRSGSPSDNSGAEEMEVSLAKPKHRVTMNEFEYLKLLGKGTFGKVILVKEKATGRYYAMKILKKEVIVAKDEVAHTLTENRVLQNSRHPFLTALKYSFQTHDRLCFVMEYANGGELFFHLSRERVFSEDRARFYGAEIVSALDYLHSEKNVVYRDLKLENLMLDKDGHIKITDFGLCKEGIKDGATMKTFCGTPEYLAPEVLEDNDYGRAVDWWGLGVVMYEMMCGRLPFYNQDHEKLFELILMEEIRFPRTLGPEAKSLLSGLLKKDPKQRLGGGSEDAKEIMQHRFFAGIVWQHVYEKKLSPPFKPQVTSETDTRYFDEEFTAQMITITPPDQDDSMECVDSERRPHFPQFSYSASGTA

IC50 [µM] | Compound
0.05 | NC[C@H](Cc1ccccc1)NC(=O)C1=Cc2c[nH]c3nccc(c23)CC1 [Cpd. 1, N-[(1S)-2-amino-1-benzylethyl]-6,7-dihydro-2H-2,3-diazabenzo[cd]azulene-8-carboxamide]
0.184 | CC(=O)N1CC(C(=O)N[C@H](CN)Cc2ccccc2)=Cc2c[nH]c3nccc1c23 [Cpd. 3, 6-acetyl-N-[(1S)-2-amino-1-benzylethyl]-6,7-dihydro-2H-2,3,6-triazabenzo[cd]azulene-8-carboxamide]
0.017 | NC[C@H](Cc1ccccc1)NC(=O)C1=Cc2c[nH]c3nccc(c23)NC1 [compound 2, N-[(1S)-2-amino-1-benzylethyl]-6,7-dihydro-2H-2,3,6-triazabenzo[cd]azulene-8-carboxamide]
0.121 | O=C(N[C@H](CN1CCCC1)c1ccccc1)C1=Cc2c[nH]c3nccc(c23)CC1 [Cpd. 6, N-[(1S)-1-phenyl-2-pyrrolidin-1-ylethyl]-6,7-dihydro-2H-2,3-diazabenzo[cd]azulene-8-carboxamide]
